Each structure is given as a SMILES string. Read-outs that look alike come from different tables or passages of the source.

Experiment [1] concerns primary hepatocytes of propionic acidemia patients. Put plainly: Reduction of 13C-propionyl-CoA and accumulation of compound-CoA ester after 13C-isoleucine challenge (Example 1). In kind it is cell-based. The conditions noted are these: Homo sapiens, Hepatocyte, 13C-labeled isoleucine, compound 0 μM to 1,000 μM. The protocol:
Primary hepatocytes are isolated from explanted livers of propionic acidemia patients and are cultured on day 1 using standard protocols (see: Chapman et al. “Recapitulation of metabolic defects in a model of propionic acidemia using patient-derived primary hepatocytes” Mol. Genet. Metab. 2016, 117(3), 355-362). Approximately 2×10^5 hepatocytes are plated into each well of a collagen-coated 48-well tissue culture plate and pre-conditioned in a custom Modified Corning culture media for Hepatocells (Corning) without low levels of branched chain amino acids for 72 hours. On day 4, hepatocytes are treated with increasing doses of compound (0, 1, 3, 10, 30, 100, 300, 1000 μM) for 30 min. After 30 min the cells are challenged with ^13C-isoleucine (3 mM). At the end of the challenge period, cells are lysed in 100 μL of […] acetonitrile (MeCN) and 0.1% trifluoroacetic acid (TFA) containing 100 μM of ethymalonyl-CoA as an internal standard. Cells are removed from the well by scraping into the lysis buffer. The collected cellular samples are then dispensed into a microfuge tube. The plate wells are washed again with lysis buffer to ensure the remaining cells are dislocated from the well. All remaining collected cells are then moved into the centrifuge tube. The cellular samples are flash frozen in liquid nitrogen and stored at −80° C. To begin processing, the frozen cellular lysates are thawed on ice and vortexed. The samples are centrifuged at 20,000 g for 10 min at 4° C. and the total volume of supernatant is transferred to a no-bind 96-well plate on ice. The samples are dried under vacuum for about 2 hours and then resuspended in 150 μL of water in each well. Total volumes of samples are filtered through a prepared Durapore filter plate into a no-bind 96-well plate. The filtered samples are stored at −80° C. for HTMS/MS analysis.

The test system of experiment [2] is primary hepatocytes of methylmalonic acidemia patients. Put plainly: Propionyl-CoA and methylmalonyl-CoA from various sources in MMA primary hepatocytes (Examples 4, 5). In kind it is cell-based, human. As to conditions: for EC50: Homo sapiens, Hepatocyte. The protocol: Primary hepatocytes isolated from livers of methylmalonic acidemia patients are treated with increasing doses of compound 1 (0, 1, 3, 10, 30, 100, 300, 1000 μM) for 30 minutes. […] At the end of the challenge period, media is removed and the cells are lysed with 70% MCCN and 0.1% TFA containing 100 μM of ethymalonyl-CoA as an internal standard and harvested. Cell lysates are processed for HTMS/MS analysis.
Primary hepatocytes isolated from livers of methylmalonic acidemia patients are treated with increasing doses of compound 5 (0, 0.1, 0.3, 1, 3, 10, 30, 100 μM) for 30 min. […] At the end of the challenge period, media is removed and the cells are lysed with 70% MeCN and 0.1% TFA containing 100 μM of ethymalonyl-CoA as an internal standard and harvested. Cell lysates are processed for HTMS/MS analysis.

Experiment [3] deals with primary hepatocytes of propionic acidemia patients. The experiment in a line: Propionyl-carnitine (C3) in PA primary hepatocytes (Example 6). The experiment is classed as cell-based, human. The conditions noted are these: for EC50: Homo sapiens, Hepatocyte, read-out: concentration of propionyl-carnitine EC50. The protocol: Primary hepatocytes isolated from livers of propionic acidemia patients are treated with increasing doses of compound 1 (0, 1, 3, 10, 30, 100, 300, 1000 μM) for 30 min. After 30 min the cells are challenged with ^13C-KIVA (1 mM) and ^13C-isoleucine (3 mM) for 60 minutes. At the end of the challenge period, media is removed and the cells are washed with ice cold PBS. Cells are lysed with 70% MeCN containing 4 nM of hexanoyl-carnitine as an internal standard (lysis buffer), harvested and processed for HTMS/MS analysis.

The test system is the same in experiment [4]. Put plainly: Propionyl-CoA from various sources in PA primary hepatocytes (Examples 2, 3). The experiment is classed as cell-based, human. As to conditions: for EC50: Homo sapiens, Hepatocyte, read-out: concentration of propionyl-CoA EC50. The method, then: Primary hepatocytes isolated from livers of propionic acidemia patients are treated with increasing doses of compound 1 (0, 1, 3, 10, 30, 100, 300, 1000 μM) for 30 min. After 30 min the cells are challenged with the different sources of P-CoA, which may include ^13C-ketoisovaleric acid (KIVA) (1 mM), […] (ILE) (3 mM), ^13C-threonine (THR) (5 mM), ^13C-methionine (MET) (5 mM), ^13C-heptanoate (100 μM), or ^13C-propionate (5 mM) for 60 minutes. At the end of the challenge period, media is removed and the cells are lysed with 70% MeCN and 0.1% TFA containing 100 μM of ethymalonyl-CoA as an internal standard and harvested. Cell lysates are processed for HTMS/MS analysis.
Primary hepatocytes isolated from livers of propionic acidemia patients are treated with increasing doses of compound 5 (0, 0.1, 0.3, 1, 3, 10, 30, 100 μM) for 30 minutes. After 30 minutes the cells are challenged with the different sources of P-CoA, which may include ^13C-KIVA (1 mM), ^13C-isoleucine (3 mM), ^13C-threonine (5 mM), ^13C-methionine (5 mM), ^13C-heptanoate (100 μM), or ^13C-propionate (5 mM) for 60 minutes. At the end of the challenge period, media is removed and the cells are lysed with 70% MeCN and 0.1% TFA containing 100 μM of ethymalonyl-CoA as an internal standard and harvested. Cell lysates are processed for HTMS/MS analysis.

Experiment [5] has the same test system. Put plainly: Reduction of propionyl-CoA with compounds 8 and 9 (Example 9). In kind it is cell-based, human. As to conditions: PA hepatocytes; 13C-isoleucine (3 mM). The method, then:
Primary hepatocytes isolated from livers of propionic acidemia patients are treated with increasing doses of compound 1 (0, 0.1, 0.3, 1, 3, 10, 30, 100 μM) for 30 minutes. After 30 minutes, the cells are challenged with ^13C-isoleucine (3 mM) for 60 minutes. At the end of the challenge period, media is removed and the cells are lysed with 70% MeCN and 0.1% TFA containing 100 μM of ethymalonyl-CoA as an internal standard and harvested. Cell lysates are processed for HTMS/MS analysis.

Where [6] appears, read: read-out: concentration of 12C-Compound-CoA ester EC50.
Setting [7] is: read-out: concentration of 13C-propionyl-CoA EC50.

In the case of `CCCC(CCC)C(=O)O` [Compound 1, 2-propylpentanoic acid (valproic acid)], the EC50 turned out to be 12.5 µM in experiment [1] (setting [6]); 12.4 µM in experiment [1] (setting [7]); 89.4 µM in experiment [2] (100 μM 13C-propionate, read-out: concentration of methylmalonyl-CoA EC50); 68.2 µM in experiment [2] (100 μM 13C-propionate, read-out: concentration of propionyl-CoA EC50); 31.3 µM in experiment [2] (1 mM 13C-KIVA, read-out: concentration of methylmalonyl-CoA EC50); 30.9 µM in experiment [2] (1 mM 13C-KIVA, read-out: concentration of propionyl-CoA EC50). Also, the EC50 turned out to be 25.5 µM in experiment [2] (3 mM 13C-ILE, read-out: concentration of methylmalonyl-CoA EC50); 30.8 µM in experiment [2] (3 mM 13C-ILE, read-out: concentration of propionyl-CoA EC50); 47.3 µM in experiment [2] (5 mM 13C-MET, read-out: concentration of methylmalonyl-CoA EC50); 50.7 µM in experiment [2] (5 mM 13C-MET, read-out: concentration of propionyl-CoA EC50); 25.6 µM in experiment [2] (5 mM 13C-THR, read-out: concentration of methylmalonyl-CoA EC50); 13.9 µM in experiment [2] (5 mM 13C-THR, read-out: concentration of propionyl-CoA EC50). Moreover, the EC50 in experiment [3] (1 mM 13C-KIVA) came to 44.3 µM; in experiment [3] (3 mM 13C-ILE) it was 54.3 µM; in experiment [4] (100 μM 13C-heptanoate), 48.2 µM; in experiment [4] (1 mM 13C-KIVA) it was 14.2 µM; in experiment [4] (3 mM 13C-ILE), 15 µM; in experiment [4] (5 mM 13C-MET), 7.14 µM. For the same molecule, the EC50 in experiment [4] (5 mM 13C-THR) stood at 9.2 µM; in experiment [4] (5 mM 13C-propionate) it was 21.2 µM. Moreover, the “intracellular propionyl-CoA and methylmalonyl-CoA from all sources investigated” value in experiment [2] is “dose-dependent reduction”. Further, the “intracellular propionyl-carnitine (C3) from 13C-KIVA or 13C-isoleucine” value in experiment [3] is listed as “dose-dependent reduction”. Moreover, in experiment [4], the “intracellular propionyl-CoA from all sources investigated” value was “dose-dependent reduction”.
On to `CCCC(CC)C(=O)O` (centres unmarked) [Compound 2, 2-ethylpentanoic acid], for which the EC50 worked out at 1.24 µM in experiment [1] (setting [6]) and 1.23 µM in experiment [1] (setting [7]).
`CCCC(C)C(=O)O` (centres unmarked) [Compound 3, 2-methylpentanoic acid]: the values for the EC50 in experiment [1] (setting [6]) and in experiment [1] (setting [7]) were 27.4 µM and 13 µM, respectively.
Turning to `CCC(CC)C(=O)O` [Compound 4, 2-ethylbutanoic acid], the EC50 in experiment [1] (setting [6]) is 10.3 µM; in experiment [1] (setting [7]), 32.4 µM.
Regarding `CC(C)(C)CC(=O)O` [Compound 6, 3,3-dimethylbutanoic acid], the EC50 in experiment [1] (setting [6]) came out at 0.48 µM; in experiment [1] (setting [7]) it was 0.91 µM.
In the same order, the values of `CC1(CC(=O)O)CC1` [Compound 7, 2-(1-methylcyclopropyl) acetic acid] are 10.2 µM and 28.8 µM.
For the molecule `CC(C)(C)C(=O)O` [Compound 8, 2,2,dimethylpropionic acid], the “intracellular propionyl-CoA” value in experiment [5] is reported as “dose-dependent reduction”.
In the case of `CCCC(C)(C)C(=O)O` [Compound 9, 2,2-dimethylpentanoic acid], the “intracellular propionyl-CoA” value in experiment [5] is recorded as “dose-dependent reduction”.

Source of the values: patent publication US20220142955A1, “METHODS OF TREATING ORGANIC ACIDEMIAS” (HemoShear Therapeutics, Inc., priority 2019, published 2022).
